{"source": "the supplement of paper PMC4314810", "note": "± gives the standard deviation of the averaged measurements."}
{"tested_on": "MCF7", "assay": "HRG-induced Akt activation (dPAkt = log2 pAkt/Akt HRG-stimulated minus log2 pAkt/Akt basal) (log2 ratio difference); higher = stronger HRG-induced Akt(T308) phosphorylation", "conditions": "miRNA mimic concentration 10 nM; time after transfection 72 h; heregulin 10 ng/ml; stimulation time 1 h", "method_in_brief": "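MCF7 cells ([…], 96-well plates) carrying one of 879 miRNA mimics, transfected at 10 nM final with Lipofectamine RNAiMax in two biological replicates, were stimulated after 72 h with 10 ng/ml heregulin-beta1 for 1 h or left unstimulated. Phospho-Akt(T308) and total Akt in cells fixed with 4% PFA were read by In-Cell Western on an Odyssey and corrected for column-wise fixation decay to give log2(pAkt/Akt). Heregulin-induced Akt activation is the replicate mean of stimulated minus unstimulated ratios.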"}
{"sequence": "AGAAUUGUGGCUGGACAUCUGU", "HRG-induced Akt activation (log2)": "1.55 ± 0.022"}
{"sequence": "AGCUACAUCUGGCUACUGGGU", "HRG-induced Akt activation (log2)": "1.48 ± 0.25"}
{"sequence": "ACCACUGACCGUUGACUGUACC", "HRG-induced Akt activation (log2)": "1.81 ± 0.74"}
{"sequence": "ACUUGUAUGCUAGCUCAGGUAG", "HRG-induced Akt activation (log2)": "1.13 ± 0.012"}
{"sequence": "UCGGCCUGACCACCCACCCCAC", "HRG-induced Akt activation (log2)": "0.936 ± 0.2"}
{"sequence": "UGCACCAUGGUUGUCUGAGCAUG", "HRG-induced Akt activation (log2)": "1.29 ± 0.33"}
{"sequence": "ACUGAUUUCUUUUGGUGUUCAG", "HRG-induced Akt activation (log2)": "1.47 ± 0.082"}
{"sequence": "AAAGUGCUUCCUUUUAGAGGGU", "HRG-induced Akt activation (log2)": "0.665 ± 0.11"}
{"sequence": "GUGAGGACUCGGGAGGUGG", "HRG-induced Akt activation (log2)": "1.19 ± 0.87"}
{"sequence": "UCCAGUACCACGUGUCAGGGCCA", "HRG-induced Akt activation (log2)": "0.976 ± 0.31"}
{"sequence": "CCUCUGAAAUUCAGUUCUUCAG", "HRG-induced Akt activation (log2)": "1.76 ± 0.071"}
{"sequence": "AAGCCCUUACCCCAAAAAGCAU", "HRG-induced Akt activation (log2)": "1.6 ± 0.26"}
{"sequence": "CCUCUUCCCCUUGUCUCUCCAG", "HRG-induced Akt activation (log2)": "1.52 ± 0.031"}
{"sequence": "CUGGGAGAAGGCUGUUUACUCU", "HRG-induced Akt activation (log2)": "1.04 ± 0.2"}
{"sequence": "UCUUUGGUUAUCUAGCUGUAUGA", "HRG-induced Akt activation (log2)": "1.96 ± 0.15"}
{"sequence": "UCGACAGCACGACACUGCCUUC", "HRG-induced Akt activation (log2)": "1.4 ± 0.42"}
{"sequence": "UGGUGCGGAGAGGGCCCACAGUG", "HRG-induced Akt activation (log2)": "0.984 ± 0.11"}
{"sequence": "UACCCUGUAGAUCCGAAUUUGUG", "HRG-induced Akt activation (log2)": "1.47 ± 0.25"}
{"sequence": "UGGUUCUAGACUUGCCAACUA", "HRG-induced Akt activation (log2)": "1.94 ± 0.026"}
{"sequence": "UGAGGUAGUAGGUUGUAUAGUU", "HRG-induced Akt activation (log2)": "1.26 ± 0.07"}
{"sequence": "AGGCAGUGUAUUGUUAGCUGGC", "HRG-induced Akt activation (log2)": "1.91 ± 0.036"}
{"sequence": "UAGGCAGUGUCAUUAGCUGAUUG", "HRG-induced Akt activation (log2)": "1.69 ± 0.15"}
{"sequence": "AGGAUGAGCAAAGAAAGUAGAUU", "HRG-induced Akt activation (log2)": "1.13 ± 0.25"}
{"sequence": "GAUGAUGCUGCUGAUGCUG", "HRG-induced Akt activation (log2)": "1.07 ± 0.52"}
{"sequence": "CUCUAGAGGGAAGCGCUUUCUG", "HRG-induced Akt activation (log2)": "1.51 ± 0.15"}
{"sequence": "CUGCGCAAGCUACUGCCUUGCU", "HRG-induced Akt activation (log2)": "1.07 ± 0.26"}
{"sequence": "UCCCCCAGGUGUGAUUCUGAUUU", "HRG-induced Akt activation (log2)": "1.14 ± 0.29"}
{"sequence": "ACUGCUGAGCUAGCACUUCCCG", "HRG-induced Akt activation (log2)": "1.04 ± 0.26"}
{"sequence": "CUGGGAGGUGGAUGUUUACUUC", "HRG-induced Akt activation (log2)": "0.961 ± 0.055"}
{"sequence": "GCUACUUCACAACACCAGGGCC", "HRG-induced Akt activation (log2)": "1.67 ± 0.3"}
{"sequence": "GCAUGGGUGGUUCAGUGG", "HRG-induced Akt activation (log2)": "1.52 ± 0.11"}
{"sequence": "UUCAUUUGGUAUAAACCGCGAUU", "HRG-induced Akt activation (log2)": "2.42 ± 0.062"}
{"sequence": "ACCCGUCCCGUUCGUCCCCGGA", "HRG-induced Akt activation (log2)": "1.513 ± 0.0044"}
{"sequence": "CCACACCGUAUCUGACACUUU", "HRG-induced Akt activation (log2)": "1.36 ± 0.12"}
{"sequence": "GUGUGCGGAAAUGCUUCUGCUA", "HRG-induced Akt activation (log2)": "1.18 ± 0.2"}
{"sequence": "UGGAGUCCAGGAAUCUGCAUUUU", "HRG-induced Akt activation (log2)": "0.279 ± 0.71"}
{"sequence": "CGGGCGUGGUGGUGGGGG", "HRG-induced Akt activation (log2)": "1.56 ± 0.11"}
{"sequence": "UUCAAGUAAUCCAGGAUAGGCU", "HRG-induced Akt activation (log2)": "1.19 ± 0.24"}
{"sequence": "AUCUGGAGGUAAGAAGCACUUU", "HRG-induced Akt activation (log2)": "1.83 ± 0.33"}
{"sequence": "CCUCAGGGCUGUAGAACAGGGCU", "HRG-induced Akt activation (log2)": "1.49 ± 0.21"}
{"sequence": "CUCCUAUAUGAUGCCUUUCUUC", "HRG-induced Akt activation (log2)": "1.72 ± 0.36"}
{"sequence": "CGCGGGUGCUUACUGACCCUU", "HRG-induced Akt activation (log2)": "3.25 ± 0.033"}
{"sequence": "AUCCUUGCUAUCUGGGUGCUA", "HRG-induced Akt activation (log2)": "1.94 ± 0.15"}
{"sequence": "GCAAAGCACACGGCCUGCAGAGA", "HRG-induced Akt activation (log2)": "1.27 ± 0.08"}
{"sequence": "UCGUGGCCUGGUCUCCAUUAU", "HRG-induced Akt activation (log2)": "1.03 ± 0.11"}
{"sequence": "UGCAGGACCAAGAUGAGCCCU", "HRG-induced Akt activation (log2)": "1.41 ± 0.17"}
{"sequence": "UGUCUUGCAGGCCGUCAUGCA", "HRG-induced Akt activation (log2)": "1.68 ± 0.5"}
{"sequence": "UCAGUAAAUGUUUAUUAGAUGA", "HRG-induced Akt activation (log2)": "1.671 ± 0.0072"}
{"sequence": "UACUCAAAAAGCUGUCAGUCA", "HRG-induced Akt activation (log2)": "1.02 ± 0.51"}
{"sequence": "UAAUUUUAUGUAUAAGCUAGU", "HRG-induced Akt activation (log2)": "1.79 ± 0.15"}
{"sequence": "AGAGGCUGGCCGUGAUGAAUUC", "HRG-induced Akt activation (log2)": "1.48 ± 0.024"}
{"sequence": "CAAUCAGCAAGUAUACUGCCCU", "HRG-induced Akt activation (log2)": "1.93 ± 0.24"}
{"sequence": "GAACGCCUGUUCUUGCCAGGUGG", "HRG-induced Akt activation (log2)": "1.4 ± 0.093"}
{"sequence": "AAGUAGUUGGUUUGUAUGAGAUGGUU", "HRG-induced Akt activation (log2)": "1.424 ± 0.014"}
{"sequence": "UGCCUGGGUCUCUGGCCUGCGCGU", "HRG-induced Akt activation (log2)": "1.29 ± 0.18"}
{"sequence": "CAGGAUGUGGUCAAGUGUUGUU", "HRG-induced Akt activation (log2)": "1.41 ± 0.093"}
{"sequence": "CCUCUAGAUGGAAGCACUGUCU", "HRG-induced Akt activation (log2)": "1.41 ± 0.026"}
{"sequence": "UCCUUCAUUCCACCGGAGUCUG", "HRG-induced Akt activation (log2)": "1.66 ± 0.26"}
{"sequence": "AAGUUCUGUUAUACACUCAGGC", "HRG-induced Akt activation (log2)": "1.154 ± 0.01"}
{"sequence": "GCGACCCACUCUUGGUUUCCA", "HRG-induced Akt activation (log2)": "1.8 ± 0.034"}
{"sequence": "AAAACCGUCUAGUUACAGUUGU", "HRG-induced Akt activation (log2)": "1.26 ± 0.26"}
{"sequence": "UGUGUCACUCGAUGACCACUGU", "HRG-induced Akt activation (log2)": "2.42 ± 0.089"}
{"sequence": "AAAUCUCUGCAGGCAAAUGUGA", "HRG-induced Akt activation (log2)": "1.19 ± 0.11"}
{"sequence": "GUGGGCGGGGGCAGGUGUGUG", "HRG-induced Akt activation (log2)": "1.13 ± 0.44"}
{"sequence": "UUCUCCAAAAGGGAGCACUUUC", "HRG-induced Akt activation (log2)": "2.3 ± 0.097"}
{"sequence": "AGAGGUAGUAGGUUGCAUAGUU", "HRG-induced Akt activation (log2)": "1.08 ± 0.21"}
{"sequence": "AAAAGCUGGGUUGAGAGGA", "HRG-induced Akt activation (log2)": "1.507 ± 0.011"}
{"sequence": "ACCGUGCAAAGGUAGCAUA", "HRG-induced Akt activation (log2)": "1.89 ± 0.11"}
{"sequence": "UAAAGUAAAUAUGCACCAAAA", "HRG-induced Akt activation (log2)": "1.45 ± 0.18"}
{"sequence": "UUUGAGGCUACAGUGAGAUGUG", "HRG-induced Akt activation (log2)": "2.06 ± 0.034"}
